Assay results taken from patent US20110059035A1, “COMPOSITIONS BASED ON POLYMER/HYDROGEN PEROXIDE COMPLEXES AND USES THEREOF” (L"OREAL, priority 2008, published 2011).

What was measured:
[1] = Activator selection: pH of Peroxydone K-30 dispersion in water after addition of activator; format: physicochemical; conditions: for Associated pH: at the minimum amount of activator, 11 g of Peroxydone K-30 in 75 g of water; for Minimum amount in order to reach a pH > 9 or a plateau pH if pH < 9: initial amount of 11 g of Peroxydone K-30, i.e. 2 g of H2O2, in 75 g of water
Description: In the case of a PVP-H2O2 complex, the following protocol can be used to select the activators. A dispersion of 11 g of Peroxydone K-30® (ISP) in 75 g of water is produced, to which increasing amounts of activator are added. pH is measured immediately after each addition. The activator is added in excess until the activator/H2O2 ratio by weight reaches 10.

[2] = In vitro bleaching test on a dye (lightening activity); conditions: H2O2 4% or PVP-H2O2 22% (eq. 4% H2O2), 1 g in 19 g dye solution, pH 10.7, OD 630 nm
Description: Protocol for in vitro bleaching test Dye solution or “solution X” is a solution of disodium salt of brilliant blue FCF (CI: 42090) from LCW (Sensient). The dye solution is prepared as follows: 15 mg of dye powder are dissolved in 50 ml of borate buffer pH 10.7 and then again diluted to 1/50th. […] After stirring the mixture in the dark for 10 min, the dispersion is filtered (0.45 μm cellulose filter) and the optical density is measured over the range from 400 to 800 nm at 25° C. […] The decoloring effectiveness is reflected by the bleaching percentage at t=10 min (i.e. [ODt10 min (mixture)−ODt10 min (dye)/ODt0 (dye)]×100.

Associated pH [1]	Minimum amount in order to reach a pH > 9 or a plateau pH if pH < 9 [1]	Structure (SMILES)	bleaching percentage at t=10 min ([2]; dilution medium PEG-8)	bleaching percentage at t=10 min ([2]; dilution medium butylene glycol)	bleaching percentage at t=10 min ([2]; dilution medium ethanol)	bleaching percentage at t=10 min ([2]; dilution medium glycerol)
9.3	0.05 g	[Ca+2].[O-][O-] [Calcium peroxide]				
		OO [Product H2O2, hydrogen peroxide]	61%	63%	72%	27%
8.1	0.9 g	O=C([O-])O.[Na+] [Sodium bicarbonate]				
9.8	0.11 g	O=[Si]([O-])[O-].[Na+].[Na+] [Sodium metasilicate]				
